Source: patent US7091158B2, “Substituted thienyl(amino)sulphonylureas” (Bayer Aktiengesellschaft, priority 1999, dated 2006)

Legend:
[1] = system: Stellaria; experiment: Post-emergence test/greenhouse; format: in vivo; settings: after three weeks, vs untreated control
Procedure: (§1) To produce a suitable preparation of active compound, one part by weight of active compound is mixed with the stated amount of solvent, the stated amount of emulsifier is added and the concentrate is diluted with water to the desired concentration.
(§2) Test plants which have a height of 5–15 cm are sprayed with the preparation of active compound such that the particular amounts of active compound desired are applied per unit area. The concentration of the spray liquor is chosen so that the particular amounts of active compound desired are applied in 1000 l of water/ha.
(§3) After three weeks, the degree of damage to the plants is rated in % damage in comparison to the development of the untreated control.
(§4) The figures denote: • 0%=no effect (like untreated control) • 100%=total destruction

[2] = system: Amaranthus; experiment: Post-emergence test/greenhouse; format: in vivo; settings: after three weeks, vs untreated control
Procedure: as §1, §2, §3, §4

[3] = system: Abutilon; experiment: Post-emergence test/greenhouse; format: in vivo; settings: after three weeks, vs untreated control
Procedure: as §1, §2, §3, §4

[4] = system: Alopecurus; experiment: Post-emergence test/greenhouse; format: in vivo; settings: after three weeks, vs untreated control
Procedure: as §1, §2, §3, §4

[5] = system: Barley; experiment: Post-emergence test/greenhouse; format: in vivo; settings: 4 g of ai/ha, after three weeks, vs untreated control
Procedure: as §1, §2, §3, §4

[6] = system: weeds; experiment: Pre-emergence test, activity against weeds; format: in vivo
Procedure: (§5) To produce a suitable preparation of active compound, 1 part by weight of active compound is mixed with the stated amount of solvent, the stated amount of emulsifier is added and the concentrate is diluted with water to the desired concentration.
(§6) Seeds of the test plants are sown in normal soil. After about 24 hours, the soil is sprayed with the preparation of active compound such that the particular amount of active compound desired is applied per unit area. The concentration of the spray liquor is chosen so that the particular amount of active compound desired is applied in 1000 litres of water per hectare.
as §3, §4

[7] = system: weeds; experiment: Post-emergence test, activity against weeds; format: in vivo
Procedure: as §1, §2, §3, §4

[8] = system: Cotton; experiment: Pre-emergence test/greenhouse; format: in vivo; settings: 15 g of ai/ha, after three weeks, vs untreated control
Procedure: as §5, §6, §3, §4

[9] = system: Stellaria; experiment: Pre-emergence test/greenhouse; format: in vivo; settings: after three weeks, vs untreated control
Procedure: as §5, §6, §3, §4

[10] = system: Viola; experiment: Pre-emergence test/greenhouse; format: in vivo; settings: after three weeks, vs untreated control
Procedure: as §5, §6, §3, §4

[11] = system: Amaranthus; experiment: Pre-emergence test/greenhouse; format: in vivo; settings: after three weeks, vs untreated control
Procedure: as §5, §6, §3, §4

[12] = system: Alopecurus; experiment: Pre-emergence test/greenhouse; format: in vivo; settings: after three weeks, vs untreated control
Procedure: as §5, §6, §3, §4

[13] = system: Cyperus; experiment: Pre-emergence test/greenhouse; format: in vivo; settings: after three weeks, vs untreated control
Procedure: as §5, §6, §3, §4

[14] = system: Sinapis; experiment: Pre-emergence test/greenhouse; format: in vivo; settings: 250 g of ai/ha, after three weeks, vs untreated control
Procedure: as §5, §6, §3, §4

[15] = system: Abutilon; experiment: Pre-emergence test/greenhouse; format: in vivo; settings: 250 g of ai/ha, after three weeks, vs untreated control
Procedure: as §5, §6, §3, §4

[16] = system: Veronica; experiment: Post-emergence test/greenhouse; format: in vivo; settings: 15 g of ai/ha, after three weeks, vs untreated control
Procedure: as §1, §2, §3, §4

[17] = system: Echinochloa; experiment: Post-emergence test/greenhouse; format: in vivo; settings: 15 g of ai/ha, after three weeks, vs untreated control
Procedure: as §1, §2, §3, §4

[18] = system: Lolium; experiment: Post-emergence test/greenhouse; format: in vivo; settings: 15 g of ai/ha, after three weeks, vs untreated control
Procedure: as §1, §2, §3, §4

[19] = system: Viola; experiment: Post-emergence test/greenhouse; format: in vivo; settings: after three weeks, vs untreated control
Procedure: as §1, §2, §3, §4

[20] = system: Veronica; experiment: Pre-emergence test/greenhouse; format: in vivo; settings: 4 g of ai/ha, after three weeks, vs untreated control
Procedure: as §5, §6, §3, §4

[21] = system: Matricaria; experiment: Pre-emergence test/greenhouse; format: in vivo; settings: after three weeks, vs untreated control
Procedure: as §5, §6, §3, §4

[22] = system: Soya; experiment: Pre-emergence test/greenhouse; format: in vivo; settings: 4 g of ai/ha, after three weeks, vs untreated control
Procedure: as §5, §6, §3, §4

[23] = system: Matricaria; experiment: Post-emergence test/greenhouse; format: in vivo; settings: 125 g of ai/ha, after three weeks, vs untreated control
Procedure: as §1, §2, §3, §4

[24] = system: Wheat; experiment: Post-emergence test/greenhouse; format: in vivo; settings: 125 g of ai/ha, after three weeks, vs untreated control
Procedure: as §1, §2, §3, §4

[25] = system: Ipomoea; experiment: Post-emergence test/greenhouse; format: in vivo; settings: Table B4, post-emergence, 125 g of ai/ha, after three weeks, vs untreated control
Procedure: as §1, §2, §3, §4

[26] = system: Chenopodium; experiment: Post-emergence test/greenhouse; format: in vivo; settings: Table B4, post-emergence, 125 g of ai/ha, after three weeks, vs untreated control
Procedure: as §1, §2, §3, §4

[27] = system: Setaria; experiment: Post-emergence test/greenhouse; format: in vivo; settings: Table B4, post-emergence, 125 g of ai/ha, after three weeks, vs untreated control
Procedure: as §1, §2, §3, §4

[28] = system: Maize; experiment: Pre-emergence test/greenhouse; format: in vivo; settings: after three weeks, vs untreated control
Procedure: as §5, §6, §3, §4

[29] = system: Chenopodium; experiment: Pre-emergence test/greenhouse; format: in vivo; settings: 125 g of ai/ha, after three weeks, vs untreated control
Procedure: as §5, §6, §3, §4

[30] = system: Xanthium; experiment: Post-emergence test/greenhouse; format: in vivo; settings: Table B3, post-emergence, 125 g of ai/ha, after three weeks, vs untreated control
Procedure: as §1, §2, §3, §4

[31] = Table A5, pre-emergence, 250 g of ai/ha
[32] = Table A4, pre-emergence, 250 g of ai/ha
[33] = Table B3, post-emergence, 125 g of ai/ha
[34] = Table A6, pre-emergence, 250 g of ai/ha

**Q.** What does the source list for `COC(=O)c1csc(C)c1S(=O)(=O)NC(=O)Nc1nc(OC)cc(OC)n1` [Example 6]?
**A.** degree of damage to the plants, Stellaria ([1]; 4 g of ai/ha): 95%; degree of damage to the plants, Amaranthus ([2]; post-emergence, 4 g of ai/ha): 100%; degree of damage to the plants, Abutilon ([3]; 4 g of ai/ha): 100%; degree of damage to the plants, Alopecurus ([4]; 4 g of ai/ha): 90%; degree of damage to the plants, Barley [5]: 20%; activity against weeds [6]: very strong activity; activity against weeds [7]: very strong activity; degree of damage to the plants, Cotton [8]: 0%; degree of damage to the plants, Stellaria ([9]; 15 g of ai/ha): 90%; degree of damage to the plants, Viola ([10]; 15 g of ai/ha): 100%; degree of damage to the plants, Amaranthus ([11]; pre-emergence, 15 g of ai/ha): 90%; degree of damage to the plants, Alopecurus ([12]; pre-emergence, 15 g of ai/ha): 80%

**Q.** With `CCOC(=O)c1csc(C(C)C)c1NS(=O)(=O)NC(=O)Nc1nc(OC)cc(OC)n1` [Example 4] as the molecule, how does the activity against weeds [6] read?
**A.** The activity against weeds was “very strong activity”.

**Q.** And the “degree of damage to the plants, Cyperus” value [13, 31]?
**A.** Its value is 90%.

**Q.** What about the “degree of damage to the plants, Sinapis” value ([14]; Table A5, pre-emergence) of the same molecule?
**A.** Its value is 90%.

**Q.** And the “degree of damage to the plants, Amaranthus” value (“degree of damage … Amaranthus” for short) [11, 31]?
**A.** The value was 90%.

**Q.** What about the “degree of damage to the plants, Abutilon” value ([15]; Table A5, pre-emergence) of the same molecule?
**A.** The value was 95%.

**Q.** And the “degree of damage to the plants, Alopecurus” value [12, 31]?
**A.** The value was 100%.

**Q.** What does the source list for `COC(=O)c1csc(C)c1S(=O)(=O)NC(=O)Nc1nc(C)nc(OC)n1` [Example 1, N-(4-methoxy-6-methyl-1,3,5-triazin-2-yl)-N′-(4-methoxycarbonyl-2-methyl-thien-3-yl-sulphonyl)-urea]?
**A.** degree of damage to the plants, Veronica [16]: 100%; degree of damage to the plants, Stellaria ([1]; 15 g of ai/ha): 100%; degree of damage to the plants, Echinochloa [17]: 100%; degree of damage to the plants, Lolium [18]: 100%; degree of damage to the plants, Viola ([19]; post-emergence, 15 g of ai/ha): 100%; degree of damage to the plants, Abutilon ([3]; 15 g of ai/ha): 100%; degree of damage to the plants, Alopecurus ([4]; 15 g of ai/ha): 100%; activity against weeds [6]: very strong activity; activity against weeds [7]: very strong activity; melting point: 195 °C; degree of damage to the plants, Veronica [20]: 95%; degree of damage to the plants, Matricaria ([21]; 4 g of ai/ha): 95%; degree of damage to the plants, Stellaria ([9]; 4 g of ai/ha): 95%; degree of damage to the plants, Soya [22]: 10%; degree of damage to the plants, Viola ([10]; 4 g of ai/ha): 100%

**Q.** For `CCc1scc(C(=O)OC)c1NS(=O)(=O)NC(=O)Nc1nc(OC)cc(OC)n1` [Example 5], which “degree of damage to the plants, Matricaria” value (from here on “degree of damage … Matricaria”) ([23]; Table B4, post-emergence) is on record?
**A.** Its value is 100%.

**Q.** And the “degree of damage to the plants, Wheat” value ([24]; Table B4, post-emergence)?
**A.** Its value is 20%.

**Q.** What about the “degree of damage to the plants, Ipomoea” value [25] of the same molecule?
**A.** Its value is 100%.

**Q.** And the “degree of damage to the plants, Chenopodium” value [26]?
**A.** Its value is 100%.

**Q.** And the “degree of damage to the plants, Setaria” value [27]?
**A.** The value was 90%.

**Q.** What about the activity against weeds [6] of the same molecule?
**A.** Its activity against weeds is “very strong activity”.

**Q.** What about the activity against weeds [7] of the same molecule?
**A.** Its activity against weeds is “very strong activity”.

**Q.** What about the “degree of damage … Matricaria” value ([21]; 125 g of ai/ha) of the same molecule?
**A.** Its value is 100%.

**Q.** And the “degree of damage to the plants, Cyperus” value ([13]; pre-emergence, 125 g of ai/ha)?
**A.** The value was 95%.

**Q.** And the “degree of damage to the plants, Viola” value ([10]; 125 g of ai/ha)?
**A.** The value was 95%.

**Q.** What about the “degree of damage to the plants, Maize” value ([28]; pre-emergence, 125 g of ai/ha) of the same molecule?
**A.** The value was 20%.

**Q.** And the “degree of damage to the plants, Chenopodium” value [29]?
**A.** Its value is 95%.

**Q.** With `CCCc1scc(C(=O)OCC)c1NS(=O)(=O)NC(=O)Nc1nc(OC)cc(OC)n1` [Example 3] as the molecule, how does the activity against weeds [6] read?
**A.** The activity against weeds was “very strong activity”.

**Q.** And the “degree of damage to the plants, Sinapis” value ([14]; Table A4, pre-emergence)?
**A.** Its value is 90%.

**Q.** And the “degree of damage … Amaranthus” value [11, 32]?
**A.** The value was 90%.

**Q.** And the “degree of damage to the plants, Abutilon” value ([15]; Table A4, pre-emergence)?
**A.** Its value is 80%.

**Q.** What about the “degree of damage to the plants, Alopecurus” value [12, 32] of the same molecule?
**A.** The value was 70%.

**Q.** With `COC(=O)c1csc(C)c1NS(=O)(=O)NC(=O)Nc1nc(OC)cc(OC)n1` [Example 2, N-(4,6-dimethoxy-pyrimidin-2-yl)-N′-(4-methoxycarbonyl-2-methyl-thien-3-yl-amino-sulphonyl)-urea] as the molecule, how does the “degree of damage to the plants, Xanthium” value [30] read?
**A.** The value was 95%.

**Q.** What about the “degree of damage … Matricaria” value ([23]; Table B3, post-emergence) of the same molecule?
**A.** The value was 100%.

**Q.** What about the “degree of damage to the plants, Viola” value [19, 33] of the same molecule?
**A.** The value was 100%.

**Q.** What about the “degree of damage … Amaranthus” value [2, 33] of the same molecule?
**A.** Its value is 100%.

**Q.** And the “degree of damage to the plants, Wheat” value ([24]; Table B3, post-emergence)?
**A.** The value was 0%.

**Q.** What about the activity against weeds [6] of the same molecule?
**A.** The activity against weeds was “very strong activity”.

**Q.** What about the activity against weeds [7] of the same molecule?
**A.** Its activity against weeds is “very strong activity”.

**Q.** And the melting point?
**A.** Its melting point is 174 °C.

**Q.** What about the “degree of damage to the plants, Cyperus” value [13, 34] of the same molecule?
**A.** The value was 95%.

**Q.** What about the “degree of damage to the plants, Sinapis” value ([14]; Table A6, pre-emergence) of the same molecule?
**A.** Its value is 95%.

**Q.** What about the “degree of damage … Amaranthus” value [11, 34] of the same molecule?
**A.** The value was 95%.

**Q.** And the “degree of damage to the plants, Abutilon” value ([15]; Table A6, pre-emergence)?
**A.** The value was 90%.

**Q.** And the “degree of damage to the plants, Maize” value [28, 34]?
**A.** Its value is 20%.
